This note sets out measurements from US10550163B2 (The Regents of the University of California, priority 2014, dated 2020).

One assay deals with I/R-injured mouse hearts. The experiment in a line: Langendorff ischemia/reperfusion injury of isolated mouse hearts, post-conditioning (peptide at reperfusion); infarct size by TTC. Details: species or system mouse (C57BL/6J). Conditions: isolated C57BL6 hearts, peptide 1.47 nmol/L during 60 min reperfusion after 20 min ischemia, Control I/R 37.6±1.3%, Mean±SEM. Here is the method:
Hearts of C57BL6 mice were freshly isolated and subject to ischemia reperfusion (I/R) injury using a Langendorff perfusion system. Hearts were pre-perfused with Krebs-Henseleit buffer for 40 minutes, and then I/R injury was consistently produced by subjecting the hearts to 20 minutes of normo-thermic ischemia, followed by reperfusion for 60 minutes with or without peptide fragment V1, V2, or V3 at the same molar concentration of 1.47 nmol/L. Sections of hearts were stained with 2,3,5-TTC and infarct area calculated as % of risk area.
Post-conditioning I/R experiments were performed as illustrated in FIG. 4A. Different peptide fragments V1-9aa, V2-10aa, V3-16aa, and V3-11aa were used at the same molar concentration of 1.47 nmol/L. Sections of hearts were stained with 2,3,5-TTC and infarct area calculated as % of risk area.
Male C57BL/6J mice (8-12 weeks old) were obtained from the Charles River Laboratories (Wilmington, Mass., USA). After anesthetized with intraperitoneal pentobarbitone (60 mg/kg), mouse hearts were harvested immediately and the aortas were cannulated with a 20-gauge stainless steel blunt needle and transferred to the Langendorff rig and perfused retrograde instantly with modified Krebs-Henseleit buffer (KHB) […] as previously described. See Bouhidel et al. Front Biosci (Landmark Ed) 2014; 19:566-570, and Zhang et al., J Mol Cell Cardiol. 2010; 48:1060-1070. […] Hearts were then harvested for analyses of infarct size. For post-conditioning treatment with peptide fragments, hearts underwent 40 minutes of KHB perfusion, 20 minutes of global ischemia, and a 60 minute reperfusion with different peptide fragments.
At the end of I/R protocol, hearts were sliced perpendicular to the long-axis of the heart at 1 mm intervals and stained with 1% triphenyl tetrazolium chloride (TTC) in PBS for 10 minutes at room temperature. After washing with PBS once, sections of the hearts will be fixed in 10% formalin overnight. […] Infarct size is expressed as an infarct-to-risk zone ratio (the risk zone is the whole ventricular volume in this global ischemic model).

The subject of assay [1] is endothelial cell NO production. The assay is described as follows: Endothelial cell nitric oxide production by electron spin resonance (ESR). The note with it: endothelial cells, 37° C., 60 minutes, Mean±SEM. The class given is cell-based, bovine. As to the method: Confluent endothelial cells were incubated with different peptide fragments V1-9aa, V2-10aa, and V3-11aa at the same molar concentration of 1.47 nmol/L at 37° C. for 60 minutes in modified Krebs/HEPEs buffer containing the NO-specific spin trap Fe^2+(DETC)2. Cells were then gently collected for analysis of NO production by using electron spin resonance (ESR).
Confluent endothelial cells were incubated with different combination of peptide fragments V1-9aa alone, V1-9aa+V2-10aa (1:1), V1-9aa+V3-11aa (1:1), and V2-10aa+V3-11aa (1:1) at the same total molar concentration of 1.47 nmol/L at 37° C. for 60 minutes in modified Krebs/HEPEs buffer containing the NO-specific spin trap Fe^2+(DETC)2. Cells were then gently collected for analysis of NO production by using electron spin resonance (ESR).
To further identify the synergistic effects peptide fragments according to the present invention, endothelial cells were treated with different combinations of peptide fragments. The treatment groups were: V1-9aa+V2-10aa group, V1-9aa+V3-11aa group, and V2-10aa+V3-11aa group. The amount of each peptide fragment was 50% of the total amount by molar concentration (or equal volume at the same molar concentration) of peptide fragments in the composition, and the final molar concentration was 1.47 nmol/L. Control group (no peptide treatment) and V1-9aa group (1.47 nmol/L) were used to compare with the combination groups. The results, shown in FIG. 7, indicate that the V1-9aa+V2-10aa group produced more NO than the V1-9aa group (V1-9aa+V2-10aa: 1.90±0.50 fold vs. V1-9aa: 1.42±0.18 fold, p<0.05).
Bovine aortic endothelial cells (BAECs, Cell Systems, Kirkland, Wash., USA) were cultured in media 199 containing 10% fetal bovine serum (FBS) as previously described. See Chalupsky & Cai, PNAS USA 2005; 102:9056-9061; and Nguyen & Cai, PNAS USA 2006; 103:6530-6535.

Where [2] appears, read: single peptide 1.47 nmol/L, ESR (FIG. 6).

With “V1-9aa: SEQ ID NO: 4, residues 304-312 of human netrin-1: CDCRHNTAG (listed as Homo sapiens)”, the “infarct size (infarct area as % of risk area)” value in the assay on I/R-injured mouse hearts was 16.8±2.2%. The “NO production, fold vs. control” value in assay [1] (combination experiment (FIG. 7), 1:1, total 1.47 nmol/L, ESR) is given as 1.42±0.18 fold; in assay [1] (setting [2]), 1.50±0.09 fold.

“V2-10aa: SEQ ID NO: 5, residues 368-377 of human netrin-1: CLNCRHNTAG (listed as Homo sapiens)”: the “infarct size (infarct area as % of risk area)” value with I/R-injured mouse hearts was 18.6±1.7%. Moreover, in assay [1] (setting [2]), the “NO production, fold vs. control” value is reported as 1.44±0.08 fold.

As to “V3-11aa: SEQ ID NO: 6, residues 423-433 of human netrin-1: CPCKDGVTGIT (listed as Homo sapiens)”, in the assay on I/R-injured mouse hearts, the “infarct size (infarct area as % of risk area)” value is 16.7±3.0%. In assay [1] (setting [2]), the “NO production, fold vs. control” value was found to be 1.45±0.11 fold.
